In one data set the test system is tetranor-PGAM antibody. As to the kind of experiment: Cross-reactivity testing of tetranor-PGAM antibody (polyclonal antiserum) by competitive EIA. Format: binding, rabbit. The note with it: percent cross-reactivity = IC50 of tetranor-PGAM / IC50 of test compound x 100; Example 3, antiserum raised with tetranor-PGAM-KLH immunogen. How it is done: (§1) Rabbit immunizations were performed by Robert Sargeant Antibodies (655 Ash Street, Ramona, Calif. 92065) as follows: Male New Zealand White Rabbits 9-10 weeks of age, were immunized with Complete Freund's Adjuvant (CFA) initially, followed by Incomplete Freund's Adjuvant (IFA) for all subsequent injections. Immunogen 3 (200 μg; prepared according to Step A of this Example) was injected for the first immunization and 100 μg for boosts. The immunogen was diluted to one milliliter with sterile saline and combined with one milliliter of the appropriate adjuvant. The antigen and adjuvant were mixed thoroughly to form a stable emulsion which is injected subcutaneously. Blood was collected from the central ear artery and allowed to clot and retract. The serum was decanted and clarified by centrifugation before freezing.
(§2) Antisera (AS) from multiple bleeds from multiple rabbits were screened by titration on a 96-well microplate with detection of specific Ab based on its ability to bind the tetranor-PGAM-AChE conjugate (Tracer 4, diluted 1:1000). The next screen consisted of a sensitivity screen selecting for AS with a suitable detection limit. The next screen excluded AS with unacceptably high cross-reactivity (experiment described below) with parent metabolites, tetranor-PGFM, and tetranor-PGDM. The final screen consisted of urinary measurements to confirm normal biological levels of tetranor-PGAM, and recovery experiments. Only one AS passed all screens.
(§3) To determine cross-reactivity of an antibody, set up the standard curve using optimal tracer and Ab dilutions according the kit instructions. Tetranor-PGAM was diluted to 10 ng/ml for the first point in the standard curve and diluted 2.5-fold serially 7 times. First standard dilutions (10 μg/ml) of tetranor-PGDM, tetranor-PGEM, and tetranor-PGFM were prepared and 7 additional 6-fold serial dilutions were performed. IC50s of all compounds were determined and each percent cross-reactivity (% XR) values of the potentially cross-reactive compounds was determined by dividing the IC50 of tetranor-PGAM by the IC50 of the test compound and multiplying by 100. See the chart below for determined % XR values.

Data set [1] relates to tetranor-PGEM EIA Antiserum. As to the kind of experiment: Cross-reactivity testing of tetranor-PGEM antibody (polyclonal antiserum) by competitive EIA. The data set is classed as binding, rabbit. To be noted: for Cross-reactivity (% XR): Specificity of the tetranor-PGEM EIA Antiserum, Example 4 kit performance characteristics; for % XR: percent cross-reactivity = IC50 of tetranor-PGEM / IC50 of test compound x 100, Example 2, antiserum raised with tetranor-PGEM-KLH immunogen. Here is the method:
as §1, with “1” for “3”, “prepared in Step A, Procedure 1 of this Example; alternatively, Immunogen 1 A, which was prepared in Step A, Procedure 1A of this Example, has been used to produce antiserum” for “prepared”, “to” for “to Step A of”, “immunization method)” for “Example)”
as §2, with “tetranor-PGEM-AChE” for “tetranor-PGAM-AChE”, “(diluted” for “(Tracer 4, diluted”, “tetranor-PGEM,” for “tetranor-PGAM,”, “experiments.” for “experiments. Only one AS passed all screens.”
as §3, with “Tetranor-PGEM” for “Tetranor-PGAM”, “tetranor-PGJM, tetranor-PGAM,” for “tetranor-PGEM,”, “tetranor-PGEM” for “tetranor-PGAM”

The conditions of data set [2]: humans; cited from earlier work.

We go through six compounds from US20110311990A1, “TETRANOR-PGEM/PGAM SPECIFIC IMMUNOGENS, ANTIBODIES, TRACERS, ASSAY KITS AND METHODS FOR MAKING SAME” (Cayman Chemical Company, Incorporated, priority 2010, published 2011).

For `O=C(O)CCCCC(=O)CC[C@H]1C(=O)C[C@H](O)[C@@H]1CCC(=O)O` [tetranor-PGDM], the “% XR” value was determined as 5.3% in the data set with tetranor-PGAM antibody and 1.5% in data set [1]. In data set [1], the “Cross-reactivity (% XR)” value came out at 1.5%.

For `O=C(O)CCCCC(=O)CC[C@H]1[C@H](O)CC(=O)[C@@H]1CCC(=O)O` [tetranor-PGEM, 11α-hydroxy-9,15-dioxo-13,14-dihydro-2,3,4,5-tetranor-prostan-1,20-dioic acid], the “% XR” value in the data set on tetranor-PGAM antibody is given as 25.1%; in data set [1] it was 100%. For the same compound, in data set [1], the “Cross-reactivity (% XR)” value is 100%.

Take `O=C(O)CCCCC(=O)CC[C@H]1C=CC(=O)[C@@H]1CCC(=O)O` [tetranor-PGAM]: the figures for the “% XR” value (in the data set with tetranor-PGAM antibody; in data set [1]) were 100% and 2,034%, respectively. The “Cross-reactivity (% XR)” value in data set [1] is on record as 2,034%.

For `CCCCC[C@H](O)/C=C/[C@H]1[C@H](O)CC(=O)[C@@H]1C/C=C\CCCC(=O)O` [PGE2], the “infused dose of PGE2 that appears as tetranor-PGEM in the urine” value in data set [2] is given as “About 15%”.

Turning to `O=C(O)CCCCC(=O)CC[C@@H]1[C@@H](CCC(=O)O)[C@@H](O)C[C@H]1O` [tetranor-PGFM], the “% XR” value in the data set with tetranor-PGAM antibody was found to be 1.0%. Moreover, in data set [1], the “Cross-reactivity (% XR)” value is recorded as 7.8% and the “% XR” value is reported as 7.8%.

As for `O=C(O)CCCCC(=O)CC[C@H]1C(=O)C=C[C@@H]1CCC(=O)O` [tetranor-PGJM], in data set [1], the “Cross-reactivity (% XR)” value is reported as 27.4% and the “% XR” value was determined as 27.4%.
